Measurements as given in ChEMBL document CHEMBL3046835, “Insecticidal activity influence of beta-cypermethrin on the pathogenicity of Beauveria bassiana against Aleurodicus disperses” (Crop Prot, 2013).
≈ marks a conversion by molar mass, not a printed value.

Assays:
[1] = tested on: Aleurodicus dispersus; assay: Insecticidal activity against third-instar nymph stage of Aleurodicus dispersus in guava plant leaves assessed as mortality at 2 mg/l measured after 9 days under laboratory conditions (reference value: 3%); assay type: functional; conditions: 216 h
[2] = tested on: Beauveria bassiana; assay: Inhibition of Beauveria bassiana Bb-N1 mycelial growth at 8 mg/L measured at 27 +/-2 degC after 10 days (reference value: 2.4 +/-0.19%); assay type: organism-based; design: scale not given: the % may be the effect or the level left; conditions: in vivo, 240 h
[3] = tested on: Beauveria bassiana; assay: Inhibition of Beauveria bassiana Bb-N1 mycelial growth at 10 mg/L measured at 27 +/-2 degC after 10 days (reference value: 2.4 +/-0.19%); assay type: organism-based; design: scale not given: the % may be the effect or the level left; conditions: in vivo, 240 h
[4] = tested on: Aleurodicus dispersus; assay: Insecticidal activity against third-instar nymph stage of Aleurodicus dispersus in guava plant leaves assessed as mortality at 2 mg/L applied via hand sprayer measured after 9 days under field conditions (reference value: 4%); assay type: functional; conditions: 216 h
[5] = tested on: Aleurodicus dispersus; assay: Insecticidal activity against third-instar nymph stage of Aleurodicus dispersus in guava plant leaves assessed as mortality at 8 mg/L applied via hand sprayer measured after 6 days in presence of 10^8 Beauveria bassiana conidial suspension under field conditions (reference value: 26.9 +/-3.04%); assay type: functional; conditions: 144 h
[6] = tested on: Aleurodicus dispersus; assay: Insecticidal activity against third-instar nymph stage of Aleurodicus dispersus in guava plant leaves assessed as mortality at 2 mg/l measured after 3 days in presence of 10^8 Beauveria bassiana conidial suspension under laboratory conditions (reference value: 24.3 +/-1.03%); assay type: functional; conditions: 72 h
[7] = tested on: Aleurodicus dispersus; assay: Insecticidal activity against third-instar nymph stage of Aleurodicus dispersus in guava leaves assessed as mortality at 2.5 mg/l treated for 15 s measured at 27 +/-2 degC after 48 hr (reference value: 3%); assay type: functional
[8] = tested on: Aleurodicus dispersus; assay: Insecticidal activity against third-instar nymph stage of Aleurodicus dispersus in guava plant leaves assessed as mortality at 4 mg/L applied via hand sprayer measured after 6 days under field conditions (reference value: 3.5%); assay type: functional; conditions: 144 h
[9] = tested on: Aleurodicus dispersus; assay: Insecticidal activity against third-instar nymph stage of Aleurodicus dispersus in guava plant leaves assessed as mortality at 4 mg/L applied via hand sprayer measured after 3 days under field conditions (reference value: 3%); assay type: functional; conditions: 72 h
[10] = tested on: Beauveria bassiana; assay: Effect on Beauveria bassiana Bb-N1 conidial germination at 4 mg/L measured at 27 +/-2 degC after 24 hr (reference value: 94.85 +/-2.13%); assay type: ADME, organism-based; conditions: in vivo
[11] = tested on: Aleurodicus dispersus; assay: Insecticidal activity against third-instar nymph stage of Aleurodicus dispersus in guava plant leaves assessed as mortality at 8 mg/L applied via hand sprayer measured after 9 days under field conditions (reference value: 4%); assay type: functional; conditions: 216 h
[12] = tested on: Aleurodicus dispersus; assay: Insecticidal activity against third-instar nymph stage of Aleurodicus dispersus in guava leaves assessed as mortality treated for 15 s measured at 27 +/-2 degC after 48 hr; assay type: functional
[13] = tested on: Aleurodicus dispersus; assay: Insecticidal activity against third-instar nymph stage of Aleurodicus dispersus in guava plant leaves assessed as mortality at 2 mg/l measured after 6 days in presence of 10^8 Beauveria bassiana conidial suspension under laboratory conditions (reference value: 32.8 +/-2.39%); assay type: functional; conditions: 144 h
[14] = tested on: Beauveria bassiana; assay: Effect on Beauveria bassiana Bb-N1 conidial germination at 10 mg/L measured at 27 +/-2 degC after 24 hr (reference value: 94.85 +/-2.13%); assay type: ADME, organism-based; conditions: in vivo
[15] = tested on: Beauveria bassiana; assay: Inhibition of Beauveria bassiana Bb-N1 mycelial growth at 2 mg/L measured at 27 +/-2 degC after 10 days (reference value: 2.4 +/-0.19%); assay type: organism-based; design: scale not given: the % may be the effect or the level left; conditions: in vivo, 240 h
[16] = tested on: Aleurodicus dispersus; assay: Insecticidal activity against third-instar nymph stage of Aleurodicus dispersus in guava plant leaves assessed as mortality at 2 mg/l measured after 6 days under laboratory conditions (reference value: 3%); assay type: functional; conditions: 144 h
[17] = tested on: Aleurodicus dispersus; assay: Insecticidal activity against third-instar nymph stage of Aleurodicus dispersus in guava plant leaves assessed as mortality at 8 mg/l measured after 6 days in presence of 10^8 Beauveria bassiana conidial suspension under laboratory conditions (reference value: 32.8 +/-2.39%); assay type: functional; conditions: 144 h
[18] = tested on: Aleurodicus dispersus; assay: Insecticidal activity against third-instar nymph stage of Aleurodicus dispersus in guava plant leaves assessed as mortality at 4 mg/L applied via hand sprayer measured after 9 days in presence of 10^8 Beauveria bassiana conidial suspension under field conditions (reference value: 42.3 +/-3.58%); assay type: functional; conditions: 216 h
[19] = tested on: Aleurodicus dispersus; assay: Insecticidal activity against third-instar nymph stage of Aleurodicus dispersus in guava leaves assessed as mortality at 10 mg/l treated for 15 s measured at 27 +/-2 degC after 48 hr (reference value: 3%); assay type: functional
[20] = tested on: Aleurodicus dispersus; assay: Insecticidal activity against third-instar nymph stage of Aleurodicus dispersus in guava plant leaves assessed as mortality at 8 mg/L applied via hand sprayer measured after 6 days under field conditions (reference value: 3.5%); assay type: functional; conditions: 144 h
[21] = tested on: Aleurodicus dispersus; assay: Insecticidal activity against third-instar nymph stage of Aleurodicus dispersus in guava plant leaves assessed as mortality at 4 mg/L applied via hand sprayer measured after 9 days under field conditions (reference value: 4%); assay type: functional; conditions: 216 h
[22] = tested on: Aleurodicus dispersus; assay: Insecticidal activity against third-instar nymph stage of Aleurodicus dispersus in guava plant leaves assessed as mortality at 4 mg/l measured after 3 days in presence of 10^8 Beauveria bassiana conidial suspension under laboratory conditions (reference value: 24.3 +/-1.03%); assay type: functional; conditions: 72 h
[23] = tested on: Aleurodicus dispersus; assay: Insecticidal activity against third-instar nymph stage of Aleurodicus dispersus in guava plant leaves assessed as mortality at 2 mg/l measured after 3 days under laboratory conditions (reference value: 2%); assay type: functional; conditions: 72 h
[24] = tested on: Aleurodicus dispersus; assay: Insecticidal activity against third-instar nymph stage of Aleurodicus dispersus in guava plant leaves assessed as mortality at 8 mg/l measured after 6 days under laboratory conditions (reference value: 3%); assay type: functional; conditions: 144 h
[25] = tested on: Aleurodicus dispersus; assay: Insecticidal activity against third-instar nymph stage of Aleurodicus dispersus in guava leaves assessed as mortality at 20 mg/l treated for 15 s measured at 27 +/-2 degC after 24 hr (reference value: 2%); assay type: functional
[26] = tested on: Aleurodicus dispersus; assay: Insecticidal activity against third-instar nymph stage of Aleurodicus dispersus in guava plant leaves assessed as mortality at 8 mg/L applied via hand sprayer measured after 9 days in presence of 10^8 Beauveria bassiana conidial suspension under field conditions (reference value: 42.3 +/-3.58%); assay type: functional; conditions: 216 h
[27] = tested on: Beauveria bassiana; assay: Effect on Beauveria bassiana Bb-N1 conidial germination at 8 mg/L measured at 27 +/-2 degC after 24 hr (reference value: 94.85 +/-2.13%); assay type: ADME, organism-based; conditions: in vivo
[28] = tested on: Aleurodicus dispersus; assay: Insecticidal activity against third-instar nymph stage of Aleurodicus dispersus in guava leaves assessed as mortality at 40 mg/l treated for 15 s measured at 27 +/-2 degC after 48 hr (reference value: 3%); assay type: functional
[29] = tested on: Aleurodicus dispersus; assay: Insecticidal activity against third-instar nymph stage of Aleurodicus dispersus in guava leaves assessed as mortality at 40 mg/l treated for 15 s measured at 27 +/-2 degC after 24 hr (reference value: 2%); assay type: functional

Q: Which results are given for CC1(C)[C@H](C=C(Cl)Cl)[C@H]1C(=O)O[C@@H](C#N)c1cccc(Oc2ccccc2)c1 [BETA-CYPERMETHRIN]?
A: mortality at 2 µg/mL [1]: 28.7%; Activity [2]: 4.4%; Activity [3]: 8.2%; mortality at 2 µg/mL [4]: 20.9%; mortality at 8 µg/mL [5]: 62.2%; mortality at 2 µg/mL [6]: 67.7%; mortality at 2.5 µg/mL [7]: 25.2%; mortality at 4 µg/mL [8]: 26.7%; mortality at 4 µg/mL [9]: 26.7%; germination rate [10]: 93.15%; mortality at 8 µg/mL [11]: 29.4%; LC95 [12]: 1768.57 µg/mL (≈ 4250 µM); LC50 ([12]; Aleurodicus dispersus, Nymph stage, 48 h): 18.4 µg/mL (≈ 44.1 µM); mortality at 2 µg/mL [13]: 75.3%; germination rate [14]: 89.18%; Activity [15]: 2.7%; mortality at 2 µg/mL [16]: 28.7%; mortality at 8 µg/mL [17]: 80.6%; mortality at 4 µg/mL [18]: 62.4%; mortality at 10 µg/mL [19]: 47.8%; mortality at 8 µg/mL [20]: 29.4%; mortality at 4 µg/mL [21]: 26.7%; mortality at 4 µg/mL [22]: 74.3%; mortality at 2 µg/mL [23]: 28.7%; mortality at 8 µg/mL [24]: 39.3%; mortality at 20 µg/mL [25]: 34.5%; mortality at 8 µg/mL [26]: 63.7%; germination rate [27]: 92.31%; mortality at 40 µg/mL [28]: 60.3%; mortality at 40 µg/mL [29]: 46.6%
